The results in this text go back to patent EP2659887A1, “Use of A-ring aromatic acetyl minocycline and pharmaceutical preparations derived from same for treatment and prevention of inflammation, autoimmune disorders and rejection of transplants” (priority 2012, dated 2013).

The subject of data set [1] is humane T-Lymphozyten. Description: Viability of stimulated human T lymphocytes (CellTiter-Blue Cell Viability Assay). Particulars: up to 5,0 µM; PWM (Figur 2A) or anti-CD3 (Figur 2B) stimulation. As for the experimental part:
Humane T-Lymphozyten wurden in serumfreiem Kulturmedium mit anti-CD3-Antikörpern (Klon OKT3) bzw. mit Pokeweed-Mitogen (PWM, 2 µg/ml) in An- und Abwesenheit verschiedener Konzentrationen von Minocyclin oder Pentaacetylcyclin stimuliert. Die Ermittlung der Proliferation (DNS-Synthese) der Zellen erfolgte nach 72 Stunden über den Einbau von 3H-Thymidin. Zur Überprüfung der Vitalität der Zellkulturen wurde der CeIITiter-Blue® Cell Viability-Assay (Promega) verwendet.
A general note: The colour change of resazurin is a common sign of viable cells or microbes.

Data set [2] relates to Experimentelle Autoimmune Enzephalomyelitis (EAE). In words: Experimental autoimmune encephalomyelitis (EAE) mouse model of multiple sclerosis, therapeutic treatment, EAE score. The class given is in vivo, SJL/J-Maus. The conditions noted are these: 100 µg/Tag; for Effekt auf die akute Phase der EAE (EAE-Score): intraperitoneal, Tag 12 bis Tag 20, therapeutic.
Source text: Als Maß für die Wirkung der therapeutischen Applikation wurde täglich der Schweregrad der EAE-Erkrankung (EAE-Score) bestimmt.
Data set [3] deals with Splenozyten (Milzzellen) von SJL/J-Mäusen. In words: Viability of stimulated mouse splenocytes (CellTiter-Blue Cell Viability Assay). It is filed as cell-based, Maus. The conditions noted are these: up to 5,0 µM; PWM (Figur 5A) or anti-CD3 (Figur 5B) stimulation. As for the experimental part:
(§1) In weiteren in vitro-Untersuchungen dienten Splenozyten (Milzzellen) von SJL/J-Mäusen zur Testung der immunmodulatorischen/immunsuppressiven Wirkung der Testsubstanzen. Nach Stimulation der Splenozyten mit Pokeweed-Mitogen (PWM, 1 μg/ml) oder mit […] (Klon 145-2C11, BD Biosciences) erfolgte die Inkubation dieser Immunzellen in An- oder Abwesenheit verschiedener Konzentrationen von Minocyclin und Pentaacetylcyclin. Die anschließende Proliferation (DNS-Synthese) der Zellen wurde nach 72 Stunden über den Einbau von […]-Blue® Cell Viability-Assays (Promega).

Data set [4] has as its system Experimentelle Autoimmune Enzephalomyelitis (EAE). Description: Number of inflammatory immune cell infiltrates in the spinal cord after EAE (histology). The class given is in vivo, SJL/J-Mäusen. Particulars: intraperitoneal or oral, 100 µg/Tag, Tag 13 bis Tag 17; analysis Tag 20. From the text: Als Folge einer T-Lymphozyten-Aktivierung und -Differenzierung kommt es bei der EAE zu einer massiven Einwanderung (Infiltration) von Immunzellen in das Rückenmark der Mäuse. Diese Immunzellen vermitteln durch Demyeliniserung und neuronale Schädigung die weitere Erkrankung und lassen sich auf histologischen Schnitten als entzündliche Infiltrate darstellen und analysieren. Die Stärke der Infiltration von Immunzellen in das Rückenmark während der EAE korreliert im Allgemeinen mit dem Schweregrad der EAE-Erkrankung.
Deshalb erfolgte die histologische Analyse der entzündlichen Infiltrate im Rückenmark von SJL/J-Mäusen nach EAE und 5-tägiger therapeutischer Applikation von Minocycline bzw. Pentaacetylcyclin.
Die EAE wurde in SJL/J-Mäusen durch Immunisierung mit einem Myelinprotein-Peptid (Proteolipid-Protein 139-151, PLP 139-151) induziert. Die Applikation von Minocyclin, Pentaacetylcyclin und einem Kontroll-Vehikel erfolgte in einem therapeutischen Ansatz (nach eindeutiger Ausbildung der EAE-Erkrankung) in zwei getrennten Versuchsansätzen: • 1.) intraperitoneal (i.p., 100 µg/Tag) von Tag 13 bis Tag 17 • 2.) oral (100 µg/Tag) von Tag 13 bis Tag 17.
Am Tag 20 nach Immunisierung erfolgte die Aufarbeitung des Rückenmarks der Mäuse für histologische Untersuchungen (Paraffin-Schnitte, HE-Färbungen). […]

Data set [5] deals with Splenozyten (Milzzellen) von SJL/J-Mäusen. Description: Proliferation (DNA synthesis, 3H-thymidine incorporation) of stimulated mouse splenocytes. The class given is cell-based, Maus. The conditions noted are these: 2,5 bzw. 5,0 µM. As for the experimental part:
as §1
On the technique in general: Incorporation of labelled thymidine or its analogues reports DNA synthesis.

For data set [6], the system named is humane T-Lymphozyten. Description: Cytokine production of PWM-stimulated human T lymphocytes (ELISA of culture supernatants). The class given is cell-based. Particulars: PWM 2 µg/ml, 48 h. From the text:
Zytokine stellen Indikatoren für die Stärke einer Entzündungsreaktion dar und sind aktive Regulatoren der Differenzierung und Proliferation von T-Lymphozyten. Aus diesem Grund lassen sich aus den in einem in vitro-Testsystem gewonnenen Daten zur Produktion/Freisetzung von Zytokinen detailliertere Aussagen über die immunmodulierenden/immunsuppressiven Eigenschaften von Testsubstanzen herleiten.
Anschließend erfolgte die Messung der Konzentrationen von Interferon-y (IFN-y), Interleukin-2 (IL-2) und Interleukin-17 (IL-17) in den Zellkulturüberständen mittels spezifischer ELISA (R&D Systems).

The subject of data set [7] is humane T-Lymphozyten. In words: Proliferation (DNA synthesis, 3H-thymidine incorporation) of stimulated human T lymphocytes. It is filed as cell-based. Particulars: remaining proliferation; PWM or anti-CD3 stimulation, 2,5 bis 5,0 µM. From the text: In in vitro-Untersuchungen dienten humane T-Lymphozyten des peripheren Blutes gesunder Spender zur Testung der immunmodulatorischen/immunsuppressiven Wirkung der Testsubstanzen. Eine gesteigerte Zellteilung/Proliferation dieser Immunzellen nach Stimulation simuliert in vitro eine Entzündungsreaktion. Eine Verringerung dieser stimulierten Proliferation durch applizierte Substanzen veranschaulicht deren immunmodulatorischen/immunsuppressiven Eigenschaften.

Data set [8] has as its system Splenozyten (Milzzellen) der SJL/J-Mäuse. Description: Cytokine release of PWM-stimulated mouse splenocytes (ELISA of culture supernatants). It is filed as cell-based, Maus. The conditions noted are these: Splenocyte, remaining release at 5,0 µM, 48 h (Figur 6A), read-out: Reduktion der Freisetzung von IFN-γ (auf). The protocol: Zur Verifizierung der an humanen […] in vitro-Untersuchungen an Splenozyten (Milzzellen) der SJL/J-Mäuse. Diese Splenozyten von wurden mit Pokeweed-Mitogen (PWM, 1 μg/ml) stimuliert und in An- oder Abwesenheit verschiedener Konzentrationen von Minocyclin und Pentaacetylcyclin inkubiert. Nach 48 Stunden erfolgte die Analyse der Zellkulturüberstände hinsichtlich der Freisetzung der Zytokine Interferon-y (IFN-y) und Interleukin-17 (IL-17) mittels spezifischer ELISA (R&D Systems).

Regarding `CN(C)c1ccc(O)c2c1C[C@H]1C[C@H]3[C@H](N(C)C)C(O)=C(C(N)=O)C(=O)[C@@]3(O)C(O)=C1C2=O` [Minocyclin], in data set [1], the “Vitalität der T-Lymphozyten” value was “nicht beeinträchtigt”.

As to `CC(=O)NC(=O)c1c(OC(C)=O)c2c(c(N(C)C)c1OC(C)=O)CC1Cc3c(N(C)C)ccc(OC(C)=O)c3C(=O)C1=C2OC(C)=O` (centres unmarked) [Pentaacetylcyclin], the results for the “Effekt auf die akute Phase der EAE (EAE-Score)” value in data set [2] and in data set [2] (listed as Pentaacetylminocyclin) were “signifikanten therapeutischen Effekt” and “signifikanten Einfluss”, respectively. Also, the “Einfluss auf die akute Phase der EAE (EAE-Score)” value in data set [2] (oral, Tag 14 bis Tag 22, therapeutic) was “signifikanten Einfluss”. The “Vitalität der Splenozyten” value in data set [3] is listed as “keine Veränderung”. Further, in data set [4], the “Zahl der entzündlichen Infiltrate im Rückenmark” value is given as “deutliche Verringerung”. Further, the “Proliferation (DNS-Synthese) stimulierter Splenozyten” value in data set [5] (PWM (1 µg/ml) or anti-CD3 (145-2C11) stimulation, 72 h) was “signifikante Hemmung”. In addition, the “reduzierte Zellteilung (bis auf)” value is reported as “ca. 30%” in data set [5] (remaining proliferation, 4320 min) and “ca. 20%” in data set [7]. Moreover, in data set [1], the “Vitalität der T-Lymphozyten” value was “nicht beeinträchtigt”. Also, the “Produktion/Freisetzung von IL-2” value in data set [6] (2,5 bis 5,0 µM (Figur 3A)) is “signifikante Hemmung”. In addition, the “Produktion/Freisetzung von IFN-γ” value in data set [6] (2,5 bis 5,0 µM (Figur 3B)) is given as “signifikante Hemmung”. The “Produktion/Freisetzung von IL-17” value in data set [6] (2,5 bis 5,0 µM (Figur 3C)) is given as “signifikante Hemmung”. Besides, the activity at 5 µM in data set [8] was ~60%.
